Where two headings read alike, the source gives them in different places.
Tests used:
[1] = system: HeLa cells; experiment: HeLa cell viability, MTT assay; assay type: cell-based; settings: Homo sapiens, 50% reduction in percent of viable HeLa cells, read-out: IC50 against HeLa Cells
Description: Table 1 sets forth ROS-Activated compounds of the present invention, together with their IC50 values corresponding to a 50% reduction in the percent of viable HeLa cells in vitro as measured via MTT assay.
All synthesized compounds were purified to greater than 98% purity prior to cell testing. HeLa cell viability assays were performed using an MTT assay.
The general structure of the ROS-activated compounds disclosed herein was probed to determine how positions in the structure alter potency in aqueous media. Compounds were screened against HeLa cells to determine IC50 values. Cell viability was monitored by an MTT dye that forms a purple formazan product in viable cells that are undergoing metabolism. […] Errors reported are between two separate experiments; independent curve-fitting had r greater than 0.95).

[2] = system: Drosophila; experiment: Drosophila survival after microinjection, Ercc1 RNAi knockdown versus control; settings: 0.5 μL of 10 mM injected
[3] = Oxidation and ROS-dependent hydrolysis of compound 3, monitored by reverse-phase HPLC; assay type: physicochemical
Description: The oxidative and ROS-activation of the instantly disclosed compounds was investigated. Water, one of the simplest nucleophile substrates, was examined under different oxidative conditions (FIG. 5). A model ROS-activated compound, compound 3, was used to explore the chemical reactivity of these agents (FIG. 5A).
Hydrolysis of compound 3 as a function of time was quantified by separation of the reaction products by reverse-phase HPLC (FIG. 5B). […] To obtain quantifiable data, time points were taken daily over one week.
Addition of the one-electron oxidant, […], led to quantitative hydrolysis of compound 3 with a half-life of 0.4±0.2 hours (FIG. 5B). The oxidation potential of Ir(IV) is 0.7 volts vs. Ag/AgCl making it an appropriate choice for oxidation of hydroquinone derivatives. In additional to oxidation, cells produce reactive oxygen species in the forms of hydroxyl radical and singlet oxygen. Copper and hydrogen peroxide can be used to produce hydroxyl radical. […] The extent of hydrolysis was dependent on the hydrogen peroxide concentration and was slow due to lack of ascorbate (data not shown). Oxidases like horseradish peroxidase reduce molecular oxygen to either hydrogen peroxide or water and at the same time oxidize a substrate with an appropriate potential. The oxidation of compound 3 was difficult to measure via HPLC since after one minute approximately half (53±13%) of compound 3 was hydrolyzed.

[4] = system: leukemia cell lines; experiment: NCI-60 Sulforhodamine B growth inhibition, leukemia cell lines; assay type: cell-based; settings: median in all leukemia cell lines tested
Description: (§1) Compounds 25 and 9 were evaluated for effects on the viability of the cell lines in the NCI-60 cell panel. […] Data is reported as growth inhibition GI50, rather than IC50, to reflect the change in cell counts relative to the starting number of cells.
(§2) Growth inhibition pattern induced by 25 and 9 based on the type of cancer was also analyzed. […] The majority of leukemia and renal cancer cell lines were above the median, indicating enhanced sensitivity to ROS-activating compounds. The current results further substantiate renal carcinoma as a potential target.

[5] = system: renal and CNS cancer cell lines; experiment: Sulforhodamine B viability assay, renal and CNS cancer cell lines; assay type: cell-based; settings: panels of renal and CNS cancer cell lines, errors less than 25%
[6] = system: HL-60; experiment: NCI-60 Sulforhodamine B growth inhibition, HL-60; assay type: cell-based; settings: Homo sapiens; HL-60, acute promyelocytic leukemia model
Description: as §1, §2

[7] = system: NCI-60 cell panel; experiment: NCI-60 cell panel, Sulforhodamine B growth inhibition; assay type: cell-based; settings: distribution of GI50 over NCI-60 panel
Description: as §1

[8] = system: human CD34+ blood stem/progenitor cells; experiment: Cytotoxicity, MTT assay on CD34+ blood stem/progenitor cells; assay type: cell-based; settings: normal blood stem cells, read-out: IC50 against CD34+ blood stem/progenitor cells
Description: (§3) To assess the anti-cancer activity against AML, transformed cells were compared to closely related, non-transformed counterparts. In the case of AML, the generally accepted non-transformed cell of origin is the human CD34+ blood stem/progenitor cell. Assessing potency against normal blood stem cells is important since, without selective cytotoxicity, an agent will yield reduced efficacy and therapeutic potential. […] Therefore, a comparison of current agents and the ROS-activated compounds disclosed herein was carried out. (FIG. 3). Cytotoxicity was measured via MTT assay on CD34+ blood stem/progenitor cells (grey lines) and on the MA9.3 AML cell line (black lines), which was derived from the transformation of human CD34+ cells by introduction of the leukemia oncogene MLL-AF9.

[9] = system: MOLT-4; experiment: NCI-60 Sulforhodamine B growth inhibition, MOLT-4; assay type: cell-based; settings: Homo sapiens; MOLT-4, ALL model line
Description: as §1, §2

[10] = system: RPMI-8226; experiment: NCI-60 Sulforhodamine B growth inhibition, RPMI-8226; assay type: cell-based; settings: Homo sapiens; RPMI-8226, plasmacytoma and myeloma cell line
Description: as §1, §2

[11] = system: CCRF-CEM; experiment: NCI-60 Sulforhodamine B growth inhibition, CCRF-CEM; assay type: cell-based; settings: Homo sapiens, ALL model line
Description: as §1, §2

[12] = system: MA9.3 AML cells; experiment: AML cytotoxicity, MTT assay on MA9.3 AML cell line; assay type: cell-based, human; settings: read-out: IC50 against MA9.3 AML cells
Description: as §3

[13] = system: 392-nucleotide dsDNA; experiment: Primer extension assay on 392-nucleotide dsDNA (DNA modification); assay type: biochemical; settings: dsDNA treated with agent; compound 25 followed by oxidative activation (Na2IrCl6)

Oc1ccc(OCCNc2ccccc2)cc1 [Compound 1, 4-(2-(phenylamino)ethoxy)phenol]
IC50 [1]: 30 µM

CN(CCOc1ccc(O)cc1)c1ccccc1 [Compound 2, 4-(2-(methyl(phenyl)amino)ethoxy)phenol]
IC50 [1]: 18 µM

CCN(CCOc1ccc(O)cc1)c1ccccc1 [Compound 3, 4-(2-(ethyl(phenyl)amino)ethoxy)phenol]
death on Day 1 ([2]; Drosophila lacking Ercc1 expression (da-GAL4/UAS-Ercc1RNAi)): 60% | death on Day 1 ([2]; control flies with wild-type Ercc1 expression (da-GAL4/+)): 10% | half-life ([3]; one-electron oxidant Na2Ir2Cl6 added, addition of one-electron oxidant Na2Ir2Cl6): 0.4 ± 0.2 h | half-life ([3]; oxidation by copper chloride-hydrogen peroxide (hydroxyl radical)): 12.1 h | half-life ([3]; phosphate buffer, no oxidant, assuming first order kinetics): 693 ± 42 h | IC50 [1]: 23 µM

CC(C)N(CCOc1ccc(O)cc1)c1ccccc1 [Compound 4, 4-(2-(isopropyl(phenyl)amino)ethoxy)phenol]
IC50 [1]: 53 µM

COc1ccc(NCCOc2ccc(O)cc2)cc1 [Compound 5, 4-(2-((4-methoxyphenyl)amino)ethoxy)phenol]
IC50 [1]: 24 µM

COc1ccc(N(C)CCOc2ccc(O)cc2)cc1 [Compound 6, 4-(2-((4-methoxyphenyl)(methyl)amino)ethoxy)phenol]
IC50 [1]: 13 µM

Oc1ccc(OCCNc2ccc(Br)cc2)cc1 [Compound 7, 4-(2-((4-bromophenyl)amino)ethoxy)phenol]
IC50 [1]: 31 µM

CN(CCOc1ccc(O)cc1)Cc1ccccc1 [Compound 8, 4-(2-(benzyl(methyl)amino)ethoxy)phenol]
IC50 [1]: 30 µM

CN(CCCOc1ccc(O)cc1)c1ccccc1 [Compound 9, 4-(3-(methyl(phenyl)amino)propoxy)phenol]
GI50 [4]: 1.9 µM | IC50 [5]: micromolar range | GI50 [6]: 0.9 µM | range of GI50 values [7]: 53 fold | IC50 ([8]; Homo sapiens): 5.4 ± 0.9 µM | GI50 [9]: 2 µM | GI50 [10]: 1.2 µM | GI50 [11]: 0.263 µM | IC50 [1]: 7 µM | IC50 ([12]; Homo sapiens): 0.7 ± 0.2 µM

CCN(CCCOc1ccc(O)cc1)c1ccccc1 [Compound 10, 4-(3-(ethyl(phenyl)amino)propoxy)phenol]
IC50 [1]: 16 µM

CN(CCCCOc1ccc(O)cc1)c1ccccc1 [Compound 11, 4-(4-(methyl(phenyl)amino)butoxy)phenol]
IC50 [1]: 8 µM

CCN(CCCCOc1ccc(O)cc1)c1ccccc1 [Compound 12, 4-(4-(ethyl(phenyl)amino)butoxy)phenol]
IC50 [1]: 14 µM

CN(CCCCCOc1ccc(O)cc1)c1ccccc1 [Compound 13, 4-(5-(methyl(phenyl)amino)pentyloxy)phenol]
IC50 [1]: 9 µM

CCN(CCSc1ccc(O)cc1)c1ccccc1 [Compound 15, 4-((2-(ethyl(phenyl)amino)ethyl)thio)phenol]
IC50 [1]: 46 µM

CN(CCCSc1ccc(O)cc1)c1ccccc1 [Compound 16, 4-((3-(methyl(phenyl)amino)propyl)thio)phenol]
IC50 [1]: 44 µM

CCN(CC(=O)Nc1ccc(O)cc1)c1ccccc1 [Compound 17, 2-(ethyl(phenyl)amino)-N-(4-hydroxyphenyl)acetamide]
IC50 [1]: 108 µM

CCN(CCOc1cccc(O)c1)c1ccccc1 [Compound 18, 3-(2-(ethyl(phenyl)amino)ethoxy)phenol]
IC50 [1]: 44 µM

CCN(CCOc1ccccc1O)c1ccccc1 [Compound 19, 2-(2-(ethyl(phenyl)amino)ethoxy)phenol]
IC50 [1]: 77 µM

CCN(CCOc1ccc(N)cc1)c1ccccc1 [Compound 20, N-(2-(4-aminophenoxy)ethyl)-N-ethylaniline]
IC50 [1]: > 125 µM

CCN(CCOc1ccc(NC(C)=O)cc1)c1ccccc1 [Compound 21, N-(4-(2-(ethyl(phenyl)amino)ethoxy)phenyl)acetamide]
IC50 [1]: 45 µM

CCN(CCOc1ccc(N2CCCCC2)cc1)c1ccccc1 [Compound 22, N-ethyl-N-(2-(4-(piperidin-1-yl)phenoxy)ethyl)aniline]
IC50 [1]: > 125 µM

CCN(CCOc1ccc(OC)cc1)c1ccccc1 [Compound 24, N-ethyl-N-(2-(4-methoxyphenoxy)ethyl)aniline]
IC50 [1]: > 125 µM

COc1ccc(N(CCOc2ccc(O)cc2)CCOc2ccc(O)cc2)cc1 [Compound 26, 4,4′-((((4-methoxyphenyl)azanediyl)bis(ethane-2,1-diyl))bis(oxy))diphenol]
IC50 [1]: 15 µM

COC(=O)CCCc1ccc(N(CCOc2ccc(O)cc2)CCOc2ccc(O)cc2)cc1 [Compound 27, methyl 4-(4-(bis(2-(4-hydroxyphenoxy)ethyl)amino)phenyl)butanoate]
IC50 [1]: 77 µM

O=C(O)CCCc1ccc(N(CCOc2ccc(O)cc2)CCOc2ccc(O)cc2)cc1 [Compound 28, 4-(4-(bis(2-(4-hydroxyphenoxy)ethyl)amino)phenyl)butanoic acid]
IC50 [1]: 67 µM

CC(=O)Oc1ccc(OCCN(CCOc2ccc(OC(C)=O)cc2)c2ccccc2)cc1 [Compound 29, (((phenylazanediyl)bis(ethane-2,1-diyl))bis(oxy))bis(4,1-phenylene) diacetate]
IC50 [1]: 12 µM

Oc1ccc(O)cc1 [Hydroquinone, reference compound]
IC50 [1]: 161 µM

Nc1ccn([C@@H]2O[C@H](CO)[C@@H](O)[C@@H]2O)c(=O)n1 [ara-C, cytosine arabinoside]
IC50 [8]: 0.59 ± 0.09 µM | IC50 [12]: 0.92 ± 0.03 µM

O=C1C=CC(=O)C=C1 [benzoquinone, reference compound]
IC50 [1]: 227 µM

O=C(O)CCCc1ccc(N(CCCl)CCCl)cc1 [chlorambucil]
IC50 ([8]; Homo sapiens): 11 ± 1 µM | IC50 ([12]; Homo sapiens): 8.7 ± 0.3 µM

N.N.[Cl][Pt][Cl] [cisplatin]
IC50 [8]: 15 ± 2 µM | full-length extension product yield [13]: no full-length extension product | IC50 [12]: 14 ± 0.7 µM

COc1cccc2c1C(=O)c1c(O)c3c(c(O)c1C2=O)C[C@@](O)(C(=O)CO)C[C@@H]3O[C@H]1C[C@H](N)[C@H](O)[C@H](C)O1 [doxorubicin]
IC50 ([8]; Homo sapiens): 0.076 ± 0.018 µM | IC50 ([12]; Homo sapiens): 0.086 ± 0.05 µM
